Legend:
[1] = for surface tension liquid-gas: Drop volume; for mass density: 101.33 kPa, Liquid
[2] = xn = mol fraction of the nth substance listed

CC1CCC(C)O1 (stereo not drawn) [2,5-dimethyltetrahydrofuran]
[1]
Conditions | mass density [kg/m3] | surface tension liquid-gas [mN/m]
298.15 K | 825.25 | 22.93
313.15 K | – | 21.5

CC1CCC(C)O1 (stereo not drawn) [2,5-dimethyltetrahydrofuran] + BrC1CCCCC1
surface tension liquid-gas [mN/m], [2]
Conditions | 298.15 K | 313.15 K
x2 = 0 | 22.93 | 21.5
x2 = 0.0692 | 23.3 | 21.71
x2 = 0.0908 | 23.42 | 21.83
x2 = 0.1916 | 24.03 | 22.52
x2 = 0.2942 | 24.54 | 23.16
x2 = 0.3981 | 24.9 | 23.73
x2 = 0.4712 | 25.17 | 24.06
x2 = 0.5994 | 25.96 | 24.84
x2 = 0.6382 | 26.39 | 25.15
x2 = 0.701 | – | 25.74
x2 = 0.8032 | 29.16 | –
x2 = 0.8035 | – | 27.31
x2 = 0.8552 | 30.35 | –
x2 = 0.8558 | – | 28.4
x2 = 0.8996 | 31.47 | –
x2 = 0.9378 | 32.34 | 30.81

CC1CCC(C)O1 (stereo not drawn) [2,5-dimethyltetrahydrofuran] + ClC1CCCCC1
surface tension liquid-gas [mN/m], [2], Drop volume
Conditions | 298.15 K | 313.15 K
x2 = 0 | 22.93 | 21.5
x2 = 0.054 | – | 21.87
x2 = 0.0582 | 23.29 | –
x2 = 0.0998 | – | 22.15
x2 = 0.1048 | 23.51 | –
x2 = 0.1988 | 24 | –
x2 = 0.202 | – | 22.76
x2 = 0.3031 | 24.46 | –
x2 = 0.3037 | – | 23.3
x2 = 0.4025 | 24.96 | –
x2 = 0.4049 | – | 23.78
x2 = 0.5047 | 25.45 | –
x2 = 0.509 | – | 24.29
x2 = 0.6055 | – | 24.87
x2 = 0.6071 | 25.99 | –
x2 = 0.7039 | – | 25.58
x2 = 0.7088 | 26.75 | –
x2 = 0.8075 | – | 26.61
x2 = 0.8097 | 27.83 | –
x2 = 0.9009 | 29.1 | –
x2 = 0.9065 | – | 27.94
x2 = 0.9479 | – | 28.54
x2 = 0.9482 | 29.98 | –

CC1CCCO1 (stereo not drawn) [2-methyltetrahydrofuran]
[1]
Conditions | mass density [kg/m3] | surface tension liquid-gas [mN/m]
298.15 K | 849.4 | 24.56
313.15 K | – | 23.02

CC1CCCO1 (stereo not drawn) [2-methyltetrahydrofuran] + BrC1CCCCC1
[2], Drop volume, x2 = 0
Conditions | surface tension liquid-gas [mN/m]
298.15 K | 24.56
313.15 K | 23.02

CC1CCCO1 (stereo not drawn) [2-methyltetrahydrofuran] + ClC1CCCCC1
[2], Drop volume, x2 = 0
Conditions | surface tension liquid-gas [mN/m]
298.15 K | 24.56
313.15 K | 23.02

BrC1CCCCC1 [bromocyclohexane]
[1]
Conditions | mass density [kg/m3] | surface tension liquid-gas [mN/m]
298.15 K | 1328.41 | 33.63
313.15 K | – | 32.98

BrC1CCCCC1 [bromocyclohexane] + C1CCOC1
surface tension liquid-gas [mN/m], [2], Drop volume
Conditions | 298.15 K | 313.15 K
x1 = 0.0528 | 27.39 | 25.66
x1 = 0.0909 | 27.62 | 25.94
x1 = 0.1919 | 28.31 | 26.67
x1 = 0.2954 | 29.06 | 27.39
x1 = 0.3997 | 29.82 | 28.12
x1 = 0.5057 | 30.56 | 28.88
x1 = 0.611 | 31.24 | 29.65
x1 = 0.7127 | 31.89 | 30.42
x1 = 0.8064 | – | 31.18
x1 = 0.8232 | 32.56 | –
x1 = 0.8937 | 32.98 | –
x1 = 0.8994 | – | 32
x1 = 0.9467 | 33.31 | 32.44
x1 = 1 | 33.63 | 32.98

BrC1CCCCC1 [bromocyclohexane] + C1CCOCC1
surface tension liquid-gas [mN/m], [2], Drop volume
Conditions | 298.15 K | 313.15 K
x1 = 0.0539 | 27.62 | 25.95
x1 = 0.098 | 27.89 | 26.32
x1 = 0.1908 | 28.45 | 27.01
x1 = 0.296 | 29.11 | 27.7
x1 = 0.3969 | 29.75 | 28.35
x1 = 0.4993 | 30.43 | 28.98
x1 = 0.6178 | 31.23 | 29.74
x1 = 0.712 | 31.86 | 30.43
x1 = 0.8067 | 32.49 | 31.23
x1 = 0.8816 | 32.95 | 31.88
x1 = 0.9568 | 33.39 | 32.57
x1 = 1 | 33.63 | 32.98

BrC1CCCCC1 [bromocyclohexane] + CC1CCC(C)O1
[2], x1 = 1
Conditions | surface tension liquid-gas [mN/m]
298.15 K | 33.63
313.15 K | 32.98

BrC1CCCCC1 [bromocyclohexane] + CC1CCCO1
surface tension liquid-gas [mN/m], [2], Drop volume
Conditions | 298.15 K | 313.15 K
x1 = 0.042 | 24.87 | 23.36
x1 = 0.0933 | 25.28 | 23.78
x1 = 0.1942 | 26.13 | 24.63
x1 = 0.2908 | 26.95 | 25.48
x1 = 0.3921 | 27.82 | 26.38
x1 = 0.5072 | 28.82 | 27.43
x1 = 0.5896 | 29.55 | 28.19
x1 = 0.6994 | 30.58 | 29.24
x1 = 0.8173 | 31.75 | 30.49
x1 = 0.9043 | 32.65 | 31.55
x1 = 0.9247 | 32.86 | 31.85
x1 = 1 | 33.63 | 32.98

ClC1CCCCC1 [chlorocyclohexane]
[1]
Conditions | mass density [kg/m3] | surface tension liquid-gas [mN/m]
298.15 K | 993.17 | 31.05
313.15 K | – | 29.44

ClC1CCCCC1 [chlorocyclohexane] + C1CCOC1
surface tension liquid-gas [mN/m], [2], Drop volume
Conditions | 298.15 K | 313.15 K
x1 = 0.0361 | – | 25.39
x1 = 0.0362 | 27.27 | –
x1 = 0.0727 | – | 25.56
x1 = 0.0728 | 27.43 | –
x1 = 0.1434 | – | 25.88
x1 = 0.1442 | 27.73 | –
x1 = 0.2257 | – | 26.25
x1 = 0.2258 | 28.07 | –
x1 = 0.3114 | 28.43 | 26.66
x1 = 0.4061 | 28.82 | 27.09
x1 = 0.5071 | – | 27.52
x1 = 0.5093 | 29.25 | –
x1 = 0.6163 | 29.68 | –
x1 = 0.6173 | – | 27.96
x1 = 0.7351 | – | 28.42
x1 = 0.7359 | 30.11 | –
x1 = 0.8582 | – | 28.89
x1 = 0.8602 | 30.54 | –
x1 = 0.9267 | 30.77 | –
x1 = 0.9291 | – | 29.16
x1 = 1 | 31.05 | 29.44

ClC1CCCCC1 [chlorocyclohexane] + C1CCOCC1
surface tension liquid-gas [mN/m], [2], Drop volume
Conditions | 298.15 K | 313.15 K
x1 = 0.044 | – | 25.64
x1 = 0.0446 | 27.44 | –
x1 = 0.085 | 27.58 | –
x1 = 0.0854 | – | 25.82
x1 = 0.1668 | – | 26.17
x1 = 0.1673 | 27.88 | –
x1 = 0.2584 | 28.23 | –
x1 = 0.259 | – | 26.55
x1 = 0.3519 | 28.62 | –
x1 = 0.3527 | – | 26.94
x1 = 0.4499 | – | 27.33
x1 = 0.4501 | 29.01 | –
x1 = 0.5511 | 29.41 | –
x1 = 0.5923 | – | 27.91
x1 = 0.6578 | – | 28.17
x1 = 0.658 | 29.82 | –
x1 = 0.7676 | 30.24 | –
x1 = 0.7693 | – | 28.6
x1 = 0.8744 | 30.62 | –
x1 = 0.8809 | – | 29.02
x1 = 0.9385 | – | 29.22
x1 = 0.9393 | 30.84 | –
x1 = 1 | 31.05 | 29.44

ClC1CCCCC1 [chlorocyclohexane] + CC1CCC(C)O1
[2], Drop volume, x1 = 1
Conditions | surface tension liquid-gas [mN/m]
298.15 K | 31.05
313.15 K | 29.44

ClC1CCCCC1 [chlorocyclohexane] + CC1CCCO1
surface tension liquid-gas [mN/m], [2], Drop volume
Conditions | 298.15 K | 313.15 K
x1 = 0.0434 | – | 23.23
x1 = 0.0471 | 24.85 | –
x1 = 0.0868 | – | 23.44
x1 = 0.0884 | 25.11 | –
x1 = 0.1719 | – | 23.93
x1 = 0.1722 | 25.63 | –
x1 = 0.2652 | 26.2 | –
x1 = 0.2653 | – | 24.47
x1 = 0.3536 | – | 25
x1 = 0.3605 | 26.81 | –
x1 = 0.4587 | 27.44 | –
x1 = 0.4591 | – | 25.65
x1 = 0.5615 | 28.15 | –
x1 = 0.5618 | – | 26.31
x1 = 0.6654 | 28.86 | –
x1 = 0.6677 | – | 27.03
x1 = 0.7734 | – | 27.78
x1 = 0.7761 | 29.62 | –
x1 = 0.8805 | – | 28.58
x1 = 0.8856 | 30.34 | –
x1 = 0.9404 | – | 29
x1 = 0.9418 | 30.7 | –
x1 = 1 | 31.05 | 29.44

C1CCOC1 [tetrahydrofuran]
[1]
Conditions | mass density [kg/m3] | surface tension liquid-gas [mN/m]
298.15 K | 882.1 | 27.12
313.15 K | – | 25.24

C1CCOC1 [tetrahydrofuran] + BrC1CCCCC1
[2], Drop volume, x2 = 0
Conditions | surface tension liquid-gas [mN/m]
298.15 K | 27.12
313.15 K | 25.24

C1CCOC1 [tetrahydrofuran] + ClC1CCCCC1
[2], Drop volume, x2 = 0
Conditions | surface tension liquid-gas [mN/m]
298.15 K | 27.12
313.15 K | 25.24

C1CCOCC1 [tetrahydropyran]
[1]
Conditions | mass density [kg/m3] | surface tension liquid-gas [mN/m]
298.15 K | 878.82 | 27.29
313.15 K | – | 25.46

C1CCOCC1 [tetrahydropyran] + BrC1CCCCC1
[2], Drop volume, x2 = 0
Conditions | surface tension liquid-gas [mN/m]
298.15 K | 27.29
313.15 K | 25.46

C1CCOCC1 [tetrahydropyran] + ClC1CCCCC1
[2], Drop volume, x2 = 0
Conditions | surface tension liquid-gas [mN/m]
298.15 K | 27.29
313.15 K | 25.46

Reference: the NIST ThermoML archive (doi:10.1021/je0500577)
